Like-named read-outs stand apart in the source and are kept apart here.

This note sets out measurements from patent US20080194585A1, “Fungicidal Pyrazine Derivatives” (priority 2005, published 2008).

One series has as its system Plasmopara viticola. In words: Test D: grape downy mildew, spray after inoculation of grape seedlings. To be noted: Plasmopara viticola, 168 h, read-out: Test D disease control rating. The series is classed as in vivo. From the text: Upon removal, disease ratings were made. […] A dash (-) indicates no test results.
For the next series, the system named is Phytophthora infestans. As to the kind of experiment: whole plant or invertebrate. Format: in vivo. To be noted: Phytophthora infestans, in Solanum lycopersicum, topical, 144 h, read-out: Test F disease control rating.
Another series deals with Septoria tritici. In words: Test J: wheat leaf blotch, preventive spray on wheat seedlings. Format: in vivo. To be noted: Zymoseptoria tritici, 528 h, read-out: Test J disease control rating. From the text:
A dash (-) indicates no test results.

The next series concerns fusarium graminearium. In words: Test I: wheat head scab, preventive spray on wheat seedlings. The following applies: Fusarium, in Triticum aestivum, topical, 192 h; for pest or weed control at 200 ppm: read-out: Test I disease control rating, 200 ppm.
The test system of series [1] is Puccinia recondita f. sp. tritici. In words: Test K: wheat leaf rust, preventive spray on wheat seedlings. The following applies: Puccinia recondita, in Triticum aestivum, 192 h, read-out: Test K disease control rating.
The test system of a further series is Botrytis cinerea. As to the kind of experiment: Test E: tomato botrytis, preventive spray on tomato seedlings. To be noted: Botrytis cinerea, in Solanum lycopersicum, topical, 72 h, read-out: Test E disease control rating.
The next series concerns Septoria nodorum. As to the kind of experiment: Test H: wheat glum blotch, preventive spray on wheat seedlings. The following applies: Parastagonospora nodorum, in Triticum aestivum, topical, 168 h.
Series [2] has as its system Erysiphe graminis f. sp. tritici. As to the kind of experiment: Test L: wheat powdery mildew, preventive spray on wheat seedlings. To be noted: Blumeria graminis, in Triticum aestivum, 168 h.
In the next series the test system is Pythium aphanidermatum. In words: Test A: bluegrass pythium blight, preventive spray on bluegrass seedlings. The following applies: Pythium aphanidermatum, 120 h, read-out: Test A disease control rating.
The test system of a further series is Rhizoctonia oryzae. As to the kind of experiment: Test G: turf brown patch, preventive spray on creeping bent grass seedlings. The following applies: Waitea circinata, in Agrostis stolonifera, topical, 144 h.
Series [3] relates to Colletotrichum orbiculare. As to the kind of experiment: Test B: cucumber Colletotrichum anthracnose, preventive spray on cucumber seedlings. The following applies: Colletotrichum orbiculare, in Cucumis sativus, 144 h.
A further series relates to Sclerotinia sclerotiorum. In words: Test C: cucumber white mold, preventive spray on cucumber seedlings. To be noted: Sclerotinia sclerotiorum, in Cucumis sativus, 168 h.
Where [4] appears, read: read-out: Test H disease control rating, 40 ppm (*).
Setting [5] is: read-out: Test L disease control rating, 40 ppm (*).
Where [6] appears, read: read-out: Test G disease control rating, 40 ppm (*).
[7] abbreviates: read-out: Test B disease control rating, 40 ppm (*).
[8] abbreviates: 40 ppm (marked *), 100 = 100% disease control, 0 = no control.
The mark [9] stands for this setting: read-out: Test I disease control rating, 40 ppm (marked *), 100 = 100% disease control, 0 = no control.
Setting [10] is: read-out: Test H disease control rating, 40 ppm (marked *), 100 = 100% disease control, 0 = no control.
Setting [11] is: read-out: Test L disease control rating, 40 ppm (marked *), 100 = 100% disease control, 0 = no control.
Where [12] appears, read: read-out: Test G disease control rating, 40 ppm (marked *), 100 = 100% disease control, 0 = no control.
The mark [13] stands for this setting: read-out: Test B disease control rating, 40 ppm (marked *), 100 = 100% disease control, 0 = no control.
Where [14] appears, read: 100 = 100% disease control, 0 = no control relative to controls.

Experimental for Rhizoctonia oryzae: (the causal agent of turf brown patch) and incubated in a saturated atmosphere at 27° C. for 24 h, and then moved to a growth chamber at 27° C. for 5 days, after which disease ratings were made.
Experimental for Septoria nodorum: (the causal agent of wheat glum blotch) and incubated in a saturated atmosphere at 20° C. for 48 h, and then moved to a growth chamber at 22° C. for 5 days, after which disease ratings were made.
Experimental for fusarium graminearium: (the causal agent of wheat head scab) and incubated in a saturated atmosphere at 20° C. for 72 h, and then moved to a growth chamber at 22° C. for 5 days, after which disease ratings were made.

The melting point is the temperature of the solid-liquid transition. On to `Cc1nc(-n2cccn2)c(=O)n(CC(C)C)c1-c1c(F)cccc1F` [Compound 149, 5-Methyl-6-(2,6-difluorophenyl)-1-(2-methylpropyl)-3-(1H-pyrazol-1-yl)-2(1H)-pyrazinone], for which the melting point lay in the range of 105 to 106 °C. Also, the pest or weed control at 200 ppm with Plasmopara viticola worked out at 0%. Further, in the series with Phytophthora infestans, the pest or weed control at 200 ppm was 0%. Besides, the pest or weed control at 40 ppm in the series with Septoria tritici (40 ppm (*)) turned out to be 100%. In addition, the pest or weed control at 200 ppm with fusarium graminearium came to 0%. Also, the pest or weed control at 40 ppm in series [1] was 100%. Also, the pest or weed control at 40 ppm with Botrytis cinerea came to 100%. Moreover, in the series with Septoria nodorum (setting [4]), the pest or weed control at 40 ppm came out at 98%. The pest or weed control at 40 ppm in series [2] (setting [5]) is 100%. Besides, in the series on Pythium aphanidermatum, the pest or weed control at 200 ppm was found to be 0%. Further, the pest or weed control at 40 ppm in the series with Rhizoctonia oryzae (setting [6]) stood at 99%. Also, the pest or weed control at 40 ppm in [3] (setting [7]) was 0%.

In turn, `CC[C@H](C)Cn1c(-c2c(F)cc(F)cc2F)c(Cl)nc(-n2cccn2)c1=O` [Compound 155, 5-Chloro-1-[(2S)-2-methylbutyl)-3-(1H-pyrazol-1-yl)-6-(2,4,6-trifluorophenyl)-2(1H)-pyrazinone] returned a melting point of 112 to 113 °C. Besides, the pest or weed control at 40 ppm in the series with Plasmopara viticola (40 ppm (*)) turned out to be 47%. Besides, the pest or weed control at 40 ppm with Phytophthora infestans was 0%. Besides, the pest or weed control at 40 ppm in the series on Septoria tritici (40 ppm (*)) turned out to be 100%. The pest or weed control at 40 ppm with fusarium graminearium (read-out: Test I disease control rating, 40 ppm (*)) came out at 0%. Further, the pest or weed control at 40 ppm in [1] came out at 100%. In addition, in the series on Botrytis cinerea, the pest or weed control at 40 ppm was determined as 100%. Moreover, the pest or weed control at 40 ppm with Septoria nodorum (setting [4]) is 100%. Moreover, the pest or weed control at 40 ppm in [2] (setting [5]) is 100%. Also, the pest or weed control at 40 ppm in the series with Sclerotinia sclerotiorum (read-out: Test C disease control rating, 40 ppm (*)) was 99%. In addition, in the series on Pythium aphanidermatum, the pest or weed control at 40 ppm was determined as 0%. Besides, the pest or weed control at 40 ppm in the series on Rhizoctonia oryzae (setting [6]) came out at 100%. Also, the pest or weed control at 40 ppm in series [3] (setting [7]) was 100%.

`COc1ccc(Cn2c(-c3c(F)cccc3F)c(Cl)nc(-n3cccn3)c2=O)cc1` [Compound 271, 5-Chloro-6-(2,6-difluorophenyl)-1-[(4-methoxyphenyl)methyl]-3-(1H-pyrazol-1-yl)-2(1H)-pyrazinone] had a melting point of 235 to 236 °C. Besides, the pest or weed control at 40 ppm in the series with Plasmopara viticola (setting [8]) is 0%. In addition, in the series with Phytophthora infestans, the pest or weed control at 40 ppm is 0%. Moreover, in the series on Septoria tritici (setting [8]), the pest or weed control at 40 ppm was found to be 0%. For the same compound, in the series with fusarium graminearium (setting [9]), the pest or weed control at 40 ppm was 0%. Also, the pest or weed control at 40 ppm in series [1] turned out to be 32%. In addition, the pest or weed control at 40 ppm in the series on Botrytis cinerea came out at 0%. Moreover, the pest or weed control at 40 ppm in the series with Septoria nodorum (setting [10]) amounted to 0%. Also, the pest or weed control at 40 ppm in series [2] (setting [11]) was 0%. Further, the pest or weed control at 40 ppm with Sclerotinia sclerotiorum (read-out: Test C disease control rating, 40 ppm (marked *), 100 = 100% disease control, 0 = no control) was 0%. Moreover, the pest or weed control at 40 ppm in the series on Pythium aphanidermatum amounted to 0%. Further, the pest or weed control at 40 ppm with Rhizoctonia oryzae (setting [12]) is 0%. For the same compound, in series [3] (setting [13]), the pest or weed control at 40 ppm was found to be 0%.

Compound `O=c1c(-n2cccn2)nc(Cl)c(-c2c(F)ccc(F)c2F)n1-c1ccccc1` [Compound 357, 5-Chloro-1-phenyl-3-(1H-pyrazol-1-yl)-6-(2,3,6-trifluorophenyl)-2(1H)-pyrazinone] returned a melting point of 250 to 260 °C. Moreover, the pest or weed control at 40 ppm in the series on Plasmopara viticola (setting [8]) was determined as 0%. Moreover, in the series on Septoria tritici (setting [8]), the pest or weed control at 40 ppm turned out to be 91%. Further, the pest or weed control at 40 ppm in the series with fusarium graminearium (setting [9]) amounted to 91%. The pest or weed control at 40 ppm in series [1] is 99%. Moreover, the pest or weed control at 40 ppm in the series on Botrytis cinerea worked out at 99%. Moreover, in the series with Septoria nodorum (setting [10]), the pest or weed control at 40 ppm was found to be 98%. The pest or weed control at 40 ppm in [2] (setting [11]) was determined as 20%. The pest or weed control at 40 ppm in the series on Pythium aphanidermatum came to 0%. The pest or weed control at 40 ppm in the series with Rhizoctonia oryzae (setting [12]) came to 84%. For the same compound, in series [3] (setting [13]), the pest or weed control at 40 ppm was 83%.

In the case of `CCC(C)Cn1c(-c2ccc(F)cc2F)c(C)nc(C#N)c1=N` (stereo not shown) [Compound 426, 5-(2,4-Difluorophenyl)-3,4-dihydro-3-imino-6-methyl-4-(2-methylbutyl)pyrazinecarbonitrile], the melting point was in the range of 73 to 77 °C. Moreover, the pest or weed control at 200 ppm in the series with Plasmopara viticola (setting [14]) is 0%. The pest or weed control at 200 ppm with Phytophthora infestans turned out to be 0%. Also, the pest or weed control at 200 ppm with Septoria tritici (200 ppm, 100 = 100% disease control, 0 = no control relative to controls) came out at 0%. The pest or weed control at 200 ppm in the series with fusarium graminearium (setting [14]) was 0%. The pest or weed control at 200 ppm in series [1] was found to be 0%. For the same compound, the pest or weed control at 200 ppm in the series with Botrytis cinerea worked out at 0%. Also, the pest or weed control at 200 ppm in the series with Septoria nodorum (read-out: Test H disease control rating, 200 ppm, 100 = 100% disease control, 0 = no control relative to controls) stood at 0%. Further, the pest or weed control at 200 ppm in series [2] (read-out: Test L disease control rating, 200 ppm, 100 = 100% disease control, 0 = no control relative to controls) is 80%. Further, the pest or weed control at 200 ppm in the series with Pythium aphanidermatum was determined as 82%. Further, the pest or weed control at 200 ppm in the series with Rhizoctonia oryzae (read-out: Test G disease control rating, 200 ppm, 100 = 100% disease control, 0 = no control relative to controls) stood at 0%. Moreover, the pest or weed control at 200 ppm in series [3] (read-out: Test B disease control rating, 200 ppm, 100 = 100% disease control, 0 = no control relative to controls) was determined as 0%.
